# Measurements as given in patent US11787778B2, “Bi-functional compounds and methods for targeted ubiquitination of androgen receptor” (MONTELINO THERAPEUTICS, INC., priority 2019, dated 2023).
# Like-named read-outs stand apart in the source and are kept apart here. Where a SMILES comes first, the peptide text is derived from it. [ ]: non-standard residue; d: D form. The star is where a group is joined. X1 = O=C(COc1c(-c2csc(N3CCOCC3)n2)ccc(F)c1F)NCCCCCCN*; X2 = Fc1ccc(-c2csc(N3CCOCC3)n2)c(OCCOCCOCCN*)c1F; Dip = N[C@H](C(=O)O)C(c1ccccc1)c1ccccc1; Chg = N[C@H](C(=O)O)C1CCCCC1; NMeA = CN[C@@H](C)C(=O)O
# Tested on: 22Rv1
# Test: 22Rv1 cell count decrease
# Type: cell-based
# Conditions: Homo sapiens
# Method: The human prostate cancer cell line, 22Rv1 has been reported to express a high level of AR-V7. […] Standard culture media was RPMI-1640 supplemented with 10% fetal bovine serum. The test compound initially was dissolved in DMSO at 50 mM. This stock solution was then diluted as needed for the indicated concentrations. […]
# [1] = read-out: 22Rv1 cell count decrease at 10 uM for 48 hours, 22Rv1 cells, 10 uM, read-out: 22Rv1 cell count decrease at 10 uM
SMILES,"inhibition at 10 µM (22Rv1, read-out: 22Rv1 cell count decrease at 10 uM for 48 hours) [%]",inhibition at 10 µM [1] [%]
"CN[C@@H](C)C(=O)N[C@H](C(=O)N1CCC[C@H]1C(=O)N[C@H](C(=O)NCCOCCOCCOc1c(-c2csc(N3CCOCC3)n2)ccc(F)c1F)C(c1ccccc1)c1ccccc1)C1CCCCC1 [Example 24, (S)-1-((S)-2-cyclohexyl-2-((S)-2-(methylamino)propanamido)acetyl)-N-((S)-1-((2-(2-(2-(2,3-difluoro-6-(2-morpholinothiazol-4-yl)phenoxy)ethoxy)ethoxy)ethyl)amino)-1-oxo-3,3-diphenylpropan-2-yl)pyrrolidine-2-carboxamide] (H-[NMeA][Chg]P[Dip]-X2)",> 50,
"CN[C@@H](C)C(=O)N[C@H](C(=O)N1CCC[C@H]1C(=O)N[C@H](C(=O)NCCCCCCNC(=O)COc1c(-c2csc(N3CCOCC3)n2)ccc(F)c1F)C(c1ccccc1)c1ccccc1)C1CCCCC1 [Example 26, (S)-1-((S)-2-cyclohexyl-2-((S)-2-(methylamino)propanamido)acetyl)-N-((S)-1-((6-(2-(2,3-difluoro-6-(2-morpholinothiazol-4-yl)phenoxy)acetamido)hexyl)amino)-1-oxo-3,3-diphenylpropan-2-yl)pyrrolidine-2-carboxamide] (H-[NMeA][Chg]P[Dip]-X1)",,> 50
"O=C1CCC(N2C(=O)c3cccc(NCCCCCCNC(=O)c4cn(-c5csc(N6CCOCC6)n5)cn4)c3C2=O)C(=O)N1 (stereo not drawn) [Example 32, N-(6-((2-(2,6-dioxopiperidin-3-yl)-1,3-dioxoisoindolin-4-yl)amino)hexyl)-1-(2-morpholinothiazol-4-yl)-1H-imidazole-4-carboxamide]",,0 to 20
